Laboratory results as given in patent publication US7705040B2, “Reagents for highly specific detection of peroxynitrite” (The University of Hong Kong, priority 2005, dated 2010).

Assays:
[1] = tested on: primary cultured cortex neurons; assay: Cell assay: fluorescent microscopy of intracellular ONOO− production after SIN-1; format: cell-based, Sprague-Dawley rats; conditions: probe 20 μM for 15 mins, then 10 and 100 μM SIN-1 for 15 mins; fluorescent microscopy (FIG. 24)
Procedure: Throughout this study, primary cultured cortex neurons were prepared from embryonic day 15 Sprague-Dawley rats. Briefly, dissociated cell suspensions were plated at a density of 2×10^6 cells/well on poly-L-lysine-coated 6-well plates (BD Biosciences, San Diego, Calif., USA) with Neurobasal/2% B27 (Gibco-BRL, Grand Island, N.Y.) containing glutamine (0.5 mM, Sigma Chemical Company, St. Louis, Mo.), penicillin (100 U/mL) and streptomycin (100 μg/mL). The cells were maintained in a humidified incubator at 37° C., in 5% CO2-95% air. On the tenth day, cultured cortical cells were used for experimentation. The primary cultured neuronal cells were incubated with the ss-6 and ss-12 at the concentration of 20 μM for 15 mins and then washed with sodium phosphate buffer (100 mM, pH 7.4) for 3 times. After that, the cells were treated with 10 and 100 μM SIN-1 (3-Morpholino-sydnonimine-HCl) for 15 mins. After washed with sodium phosphate buffer (100 mM, pH 7.4), the cells were observed under fluorescent microscopy.

[2] = Specificity of probe with different reactive oxygen species: fluorescence change with singlet oxygen; conditions: ss-6 20 μM, phosphate buffer pH 7.4; 3-(1,4-dihydro-1,4-epidioxy-1-napthyl)propionic acid at 37° C. (50 μL, 20 mM)
Procedure: (§1) Compound ss-6 obtained in Example 1 was dissolved in CH3CN to a concentration of 2 mM, and then the solution was added a 100 mM sodium phosphate buffer (pH 7.4) for dissolution to a final concentration of 20 μM. The excitation spectrum and the fluorescence spectrum of the 20 μM ss-6 solution were measured using a Perkin Elmer LS50 fluorescence spectrometer. Slit width was 5 nm for both the excitation spectrum and the fluorescence spectrum, and the photomultiplier voltage was 775 V. The measurement was carried out at the excitation wavelength of 515 nm.
(§2) Compound ss-6 obtained in Example 1 was dissolved in CH3CN to a concentration of 2 mM, and then the solution was added with a 100 mM sodium phosphate buffer (pH 7.4) for dissolution at a final concentration of 20 μM. […] The changes in fluorescence intensity before and after the treatment were measured. The fluorescence intensity was measured under the same conditions as those in Example 2. Each concentration of the fluorescence probe was 20 μM (a 100 mM sodium phosphate buffer, pH 7.4).
(§3) Compound ss-12 obtained in Example 5 was dissolved in CH3CN to a concentration of 2 mM, and then the solution was added with a 100 mM sodium phosphate buffer (pH 7.4) for dissolution at a final concentration of 20 μM. […] The changes in fluorescence intensity before and after the treatment were measured. […]

[3] = Specific detection of peroxynitrite: fluorescence versus ONOO− concentration; conditions: probe 20 μM, pH 7.4, after 30 mins
Procedure: (§4) Compound ss-6 obtained in Example 1 was dissolved in CH3CN to a concentration of 2 mM, and then the solution was added with a 100 mM sodium phosphate buffer (pH 7.4) for dissolution at a final concentration of 20 μM. Then peroxynitrite was added to final concentrations of 0, 20, 60, 100, 200, 240 and 300 μM, and the fluorescence spectrum was measured after 30 mins. The fluorescence spectrum was measured under the same conditions as those in Example 2.
as §4, with “Compound ss-12” for “Compound ss-6”, “Example 5” for “Example 1”, “Example 6.” for “Example 2.”

[4] = Specificity of probe with different reactive oxygen species: fluorescence change with SIN-1; conditions: ss-6 20 μM, 100 mM sodium phosphate buffer pH 7.4; 10 equiv; SIN-1 generates ONOO− slowly in buffer
Procedure: as §1
(§5) Compound ss-6 obtained in Example 1 was dissolved in CH3CN to a concentration of 2 mM, and then the solution was added with a 100 mM sodium phosphate buffer (pH 7.4) for dissolution at a final concentration of 20 μM. 50 μL of different reactive oxygen species (10 equiv) were added independently to 5 mL of the corresponding ss-6 solution. The changes in fluorescence intensity before and after the treatment were measured. The fluorescence intensity was measured under the same conditions as those in Example 2. Each concentration of the fluorescence probe was 20 μM (a 100 mM sodium phosphate buffer, pH 7.4).

[5] = Fluorescence spectrum after reaction of probe with 15 equiv ONOO−; conditions: ss-6 20 μM, 30 min, room temperature, excitation 515 nm, FIG. 9 vs FIG. 8
Procedure: as §1, with “nm. […]” for “nm.”
Subsequently, 15 equiv of ONOO^− solution with different concentration was slowly added to a 20 μM ss-6 solution with vigorous stirring at room temperature. […] The changes in fluorescence intensity were measured after 30 min. The excitation spectrum and the fluorescence spectrum of the solution after the completion of the reaction were measured using the same conditions as described above.
Compound ss-12 obtained in Example 5 was dissolved in CH3CN to a concentration of 2 mM, and then the solution was added a 100 mM sodium phosphate buffer (pH 7.4) for dissolution at a final concentration of 20 μM. The excitation spectrum and the fluorescence spectrum of the 20 μM ss-12 solution were measured using a Perkin Elmer® LS50 fluorescence spectrometer. […]

[6] = Specificity of probe with different reactive oxygen species: fluorescence change with ONOO−
Procedure: as §1, with “nm. […]” for “nm.”
as §2, §3

[7] = Specificity of probe with different reactive oxygen species: fluorescence change with superoxide; conditions: ss-6 20 μM, phosphate buffer pH 7.4; Xanthine Oxidase then Xanthine (50 μL, 20 mM)
Procedure: as §1, §2, §3

[8] = Specificity of probe with different reactive oxygen species: fluorescence change with H2O2; conditions: ss-6 20 μM, phosphate buffer pH 7.4; 10 equiv
Procedure: as §1, §2, §3

[9] = Specificity of probe with different reactive oxygen species: fluorescence change with hydroxyl radical; conditions: ss-6 20 μM, phosphate buffer pH 7.4; Fe(ClO4)2 (25 μL, 40 mM) and H2O2 (25 μL, 80 mM)
Procedure: as §1, §5

## N,N-diethyl-8-[2-methoxy-(4,4,4-trifluoro-3-oxobutyl)phenyl]-4,4-difluoro-4-bora-3a,4a-diaza-s-indacene-3,5-dicarboxamide [ss-6]
[1]
  measurement of intracellular ONOO− production: satisfactory results
[2]
  changes in fluorescence intensity before and after the treatment, 1O2: 3%
[3]; peroxynitrite 0, 20, 60, 100, 200, 240 and 300 μM
  increase in fluorescence intensity with peroxynitrite: great increase
[3]; peroxynitrite 0-300 μM
  relationship of fluorescence intensity with the concentration of ONOO−: good linear relationship
[4]
  changes in fluorescence intensity before and after the treatment, SIN-1: 166%
[5]
  change in fluorescence intensity after reaction with ONOO−: Dramatic increase
[6]; probe 20 μM, phosphate buffer pH 7.4, conclusion from Tables 1 and 2
  selectivity for peroxynitrite over other reactive oxygen species: very high selectivity
[6]; ss-6 20 μM, 100 mM sodium phosphate buffer pH 7.4, 10 equiv ROS, excitation 515 nm
  changes in fluorescence intensity before and after the treatment, ONOO^−: 750%
[7]
  changes in fluorescence intensity before and after the treatment, O2•−: −1%
[8]
  changes in fluorescence intensity before and after the treatment, H2O2: −5%
[9]
  changes in fluorescence intensity before and after the treatment, •OH: 2%
